Results taken from PMC6446070, “Discovery of novel isoflavone derivatives as AChE/BuChE dual-targeted inhibitors: synthesis, biological evaluation and molecular modelling” (Journal of Enzyme Inhibition and Medicinal Chemistry, 2017).
Like-named read-outs stand apart in the source and are kept apart here.

Columns and labels:
BuChE = target: T1, BuChE (Homo sapiens, UniProt P06276); assay: biochemical; details: for inhibition at 50 µM: read-out: Inhibition % at 50 μM BuChE
T1 construct: BuChE (3.4 U/mg) was obtained from human plasma; from tissue; host or cells: human plasma
Experimental: (§1) To measure in vitro AChE/BuChE activity, modified Ellman's method[27–30] was performed using a 96-well plate reader (BioTek ELx808). AChE (0.5 U/mg) was extracted from rat cortex while BuChE (3.4 U/mg) was obtained from human plasma. Each well contained 50 μl potassium phosphate buffer (KH2PO4/K2HPO4, 0.1 M, pH 8.0), 25 μl test compounds and 25 μl enzyme. […] They were pre-incubated for 60 min at 37 °C, and then 125 μl 5,5′-dithiobis-2-nitrobenzoic acid (DNTB, 3 mM in buffer) was added. […] A control experiment was performed under the same condition without any inhibitor and the blank contained buffer, water, DTNB and substrate. The described method was also performed for BuChE bioassay.

AChE = target: T2, AChE (Rattus norvegicus, UniProt P37136); assay: biochemical; details: for inhibition at 50 µM: read-out: Inhibition % at 50 μM AChE
T2 construct: AChE (0.5 U/mg) was extracted from rat cortex; from tissue; host or cells: rat cortex
Experimental: as §1

[1] = BuChE from human plasma, read-out: IC50 (μM) BuChE
[2] = 50 μM compound, BuChE from human plasma, pre-incubated 60 min at 37 °C
[3] = 50 μM compound, AChE extracted from rat cortex, pre-incubated 60 min at 37 °C

T1 sequence (P06276 29-602): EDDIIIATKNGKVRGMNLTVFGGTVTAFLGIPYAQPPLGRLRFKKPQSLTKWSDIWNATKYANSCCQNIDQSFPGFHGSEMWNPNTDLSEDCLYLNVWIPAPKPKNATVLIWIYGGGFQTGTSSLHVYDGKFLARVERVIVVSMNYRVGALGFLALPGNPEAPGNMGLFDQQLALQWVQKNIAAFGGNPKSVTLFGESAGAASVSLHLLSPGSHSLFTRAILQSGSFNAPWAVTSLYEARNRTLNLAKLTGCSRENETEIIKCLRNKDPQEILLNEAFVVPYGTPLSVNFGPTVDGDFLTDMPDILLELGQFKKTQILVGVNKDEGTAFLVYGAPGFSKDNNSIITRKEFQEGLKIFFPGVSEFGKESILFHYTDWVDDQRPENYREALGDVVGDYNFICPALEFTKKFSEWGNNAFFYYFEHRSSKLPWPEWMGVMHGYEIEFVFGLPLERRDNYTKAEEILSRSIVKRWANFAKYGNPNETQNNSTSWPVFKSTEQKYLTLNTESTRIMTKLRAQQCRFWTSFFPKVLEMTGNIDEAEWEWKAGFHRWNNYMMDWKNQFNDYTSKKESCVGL
T2 sequence (P37136 32-614): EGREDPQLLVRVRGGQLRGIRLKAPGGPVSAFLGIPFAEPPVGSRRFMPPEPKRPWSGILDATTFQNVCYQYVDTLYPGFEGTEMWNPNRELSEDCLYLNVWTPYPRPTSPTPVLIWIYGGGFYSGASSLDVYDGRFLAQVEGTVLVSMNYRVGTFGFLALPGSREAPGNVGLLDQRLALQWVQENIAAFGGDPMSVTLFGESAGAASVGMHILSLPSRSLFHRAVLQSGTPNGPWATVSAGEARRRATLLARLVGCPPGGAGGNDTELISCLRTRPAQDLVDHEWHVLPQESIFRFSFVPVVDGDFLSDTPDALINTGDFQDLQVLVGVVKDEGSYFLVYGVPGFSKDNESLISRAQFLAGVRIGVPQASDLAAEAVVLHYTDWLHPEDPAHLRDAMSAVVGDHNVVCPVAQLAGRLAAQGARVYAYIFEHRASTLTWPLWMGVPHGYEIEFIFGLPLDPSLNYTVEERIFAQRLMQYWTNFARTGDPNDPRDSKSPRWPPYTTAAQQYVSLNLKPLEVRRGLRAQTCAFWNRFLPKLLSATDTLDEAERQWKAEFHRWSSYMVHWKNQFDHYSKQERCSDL

Compound	IC50 (BuChE; [1]) [µM]	inhibition at 50 µM (BuChE; [2]) [%]	inhibition at 50 µM (AChE; [3]) [%]	further results
COc1ccc(-c2coc3cc(OCCN4CCCCC4C)ccc3c2=O)cc1 (stereo not shown) [G]	3.37	–	–	IC50 (AChE; AChE extracted from rat cortex): 1.47 µM
CC(C)NP(=O)(NC(C)C)OP(=O)(NC(C)C)NC(C)C [Iso-OMPA, tetraisopropyl pyrophosphoramide, reference compound]	–	–	–	inhibition at 50 µM (BuChE): 94.3%
COc1ccc(-c2coc3cc(OCCN4CCCCC4)cc(O)c3c2=O)cc1 [compound 1, 5-Hydroxy-3-(4-mehtoxyphenyl)-7-(2-(piperidin-1-yl)ethoxy)-4H-chromen-4-one]	4.12	–	–	Inhibition % at 50 μM BuChE (BuChE; [2]): 95.74%; Inhibition % at 50 μM AChE (AChE; [3]): 71.10%; IC50 (AChE; AChE extracted from rat cortex): 10.3 µM
COc1ccc(-c2coc3cc(OCCCN4CCCCC4)ccc3c2=O)cc1 [compound 2, 3-(4-Methoxyphenyl)-7-(3-(piperidin-1-yl)propoxy)-4H-chromen-4-one]	23.2	97	28.3	–
COc1ccc(-c2coc3cc(OCCCCN4CCCCC4)ccc3c2=O)cc1 [compound 3, 3-(4-Methoxyphenyl)-7-(4-(piperidin-1-yl)butoxy)-4-H-chromen-4-one]	11.1	–	–	Inhibition % at 50 μM BuChE (BuChE; [2]): 98.11%; Inhibition % at 50 μM AChE (AChE; [3]): 85.65%; IC50 (AChE; AChE extracted from rat cortex): 46.4 µM
CCN(C)CCOc1ccc2c(=O)c(-c3ccc(OC)cc3)coc2c1 [compound 4, 7-(2-(Ethyl(methyl)amino)ethoxy)-3-(4-methoxyphenyl)-4H-chromen-4-one]	–	84.1	58.7	–
CCN(C)CCCOc1ccc2c(=O)c(-c3ccc(OC)cc3)coc2c1 [compound 5, 7-(3-(Ethyl(methyl)amino)propoxy)-3-(4-methoxyphenyl)-4H-chromen-4-one]	–	91.3	25.4	–
CCN(C)CCCCOc1ccc2c(=O)c(-c3ccc(OC)cc3)coc2c1 [compound 6, 7-(4-(Ethyl(methyl)amino)butoxy)-3-(4-methoxyphenyl)-4H-chromen-4-one]	–	94.8	63.8	–
COc1ccc(-c2coc3cc(OCCNCCc4c[nH]c5ccc(OC)cc45)ccc3c2=O)cc1 [compound 7, 7-(2-((2-(5-Methoxy-1H-indol-3-yl)ethyl)amino)ethoxy)-3-(4-methoxyphenyl)-4H-chr-omen-4-one]	–	–	–	Inhibition % at 50 μM BuChE (BuChE; [2]): 45.74%; Inhibition % at 50 μM AChE (AChE; [3]): 3.68%
COc1ccc(-c2coc3cc(OCCCNCCc4c[nH]c5ccc(OC)cc45)ccc3c2=O)cc1 [compound 8, 7-(3-((2-(5-Methoxy-1H-indol-3-yl)ethyl)amino)propoxy)-3-(4-methoxyphenyl)-4H-chromen-4-one]	15.6	60.6	2.42	–
COc1ccc(-c2coc3cc(OCCCCNCCc4c[nH]c5ccc(OC)cc45)ccc3c2=O)cc1 [compound 9, 7-(4((2-(5-Methoxy-1H-indol-3-yl)ethyl)amino)butoxy)-3-(4-methoxyphenyl)-4H-chromen-4-one]	–	37.9	0.72	–
COc1ccc(-c2coc3cc(OCCN(C)Cc4ccccc4)ccc3c2=O)cc1 [compound 10, 7-(2-(Benzyl(methyl)amino)ethoxy)-3-(4-methoxyphenyl)-4H-chromen-4-one]	–	2.72	3.34	–
COc1ccc(-c2coc3cc(OCCN(Cc4ccccc4)Cc4ccccc4)ccc3c2=O)cc1 [compound 11, 7-(2-(Dibenzylamino)ethoxy)-3-(4-methoxyphenyl)-4H-chromen-4-one]	–	-18.5	-6.27	–
C#CCNCCOc1ccc2c(=O)c(-c3ccc(OC)cc3)coc2c1 [compound 12, 3-(4-Methoxyphenyl)-7-(2-(prop-2-yn-1-ylamino)ethoxy)-4H-chromen-4-one]	–	-16.9	5.47	–
COc1ccc(-c2coc3cc(OCCNC45CC6C[C@@](C)(C4)C[C@](C)(C6)C5)ccc3c2=O)cc1 [compound 13, 7-(2-(((3 R,5 S,7r)-3,5-dimethyladamantan-1-yl)amino)ethoxy)-3-(4-methoxyphenyl)-4H-chromen-4-one]	–	–	–	Inhibition % at 50 μM BuChE (BuChE; [2]): −6.62%; Inhibition % at 50 μM AChE (AChE; [3]): 17.61%
O=c1c(-c2ccc(O)cc2)coc2cc(OCCN3CCCCC3)ccc12 [compound 14, 3-(4-Hydroxyphenyl)-7-(2-(piperidin-1-yl)ethoxy)-4H-chromen-4-one]	7.66	99.9	79.4	IC50 (AChE; AChE extracted from rat cortex): 9.75 µM
O=c1c(-c2ccc(O)cc2)coc2cc(OCCN3CCCC3)ccc12 [compound 15, 3-(4-Hyroxyphenyl)-7-(2-(pyrrolidin-1-yl)ethoxy)-4H-chromen-4-one]	7.19	–	–	Inhibition % at 50 μM BuChE (BuChE; [2]): 99.88%; Inhibition % at 50 μM AChE (AChE; [3]): 75.22%
O=c1c(-c2ccc(OCCN3CCCCC3)cc2)coc2cc(OCCN3CCCCC3)ccc12 [compound 16, 7-(2-(Piperidin-1-yl)ethoxy)-3-(4-(2-(piperidin-1-yl)ethoxy)phenyl)-4H-chrom en-4-one]	5.92	99.7	100	IC50 (AChE; AChE extracted from rat cortex): 4.6 µM
COc1ccc(-c2coc3cc(OCC(=O)N4CCCCC4)ccc3c2=O)cc1 [compound 17, 3-(4-Methoxyphenyl)-7-(2-oxo-2-(piperidin-1-yl)ethoxy)-4H-chromen4-one]	–	-2.83	0.54	–
COc1ccc(-c2coc3cc(OCCC(=O)N4CCCCC4)ccc3c2=O)cc1 [compound 18, 3-(4-Methoxyphenyl)-7-(3-oxo-3-(piperidin-1-yl)propoxy)-4H-chromen-4-one]	–	5.59	-2.36	–
COc1ccc(-c2coc3cc(OCCOC(=O)N4CCCCC4)ccc3c2=O)cc1 [compound 19, 2-((3-(4-Methoxyphenyl)-4-oxo-4H-chromen-7-yl)oxy)ethyl piperidine-1-carboxylate]	–	–	–	IC50 (BuChE): 9.59 µM; inhibition at 50 µM (BuChE): 53%; inhibition at 50 µM (AChE): -11.6%
C#CCNC(=O)OCCOc1ccc2c(=O)c(-c3ccc(OC)cc3)coc2c1 [compound 20, 2-((3-(4-Methoxyphenyl)-4-oxo-4H-chromen-7-yl)oxy)ethyl prop-2-yn-1-ylc-arbamate]	–	–	–	Inhibition % at 50 μM BuChE (BuChE; [2]): −5.49%; Inhibition % at 50 μM AChE (AChE; [3]): −4.84%
